From US8507460B2, “Substituted 3′,5′-cyclic phosphates of purine nucleotide compounds and pharmaceutical compositions for the treatment of viral infections” (priority 2011, dated 2013)

Columns and labels:
[1] = Cytotoxicity evaluation, CellTiter-Blue Cell Viability Assay; format: cell-based; details: human, Zluc cells, read-out: HCV Replicon CC50
Experimental: For cytotoxicity evaluation, Zluc cells were treated with compound as described above, and cell viability was monitored using the CellTiter-Blue Cell Viability Assay (Promega) by adding 20 μL of the assay solution to each well. The plates were then incubated at 37° C./5% CO2 for at least 3 hours.

[2] = Stability in liver and intestinal subcellular fractions (microsomes and S9); format: in vitro ADME, human; details: 10 μM, NADPH, 60 min, percent unchanged
Experimental: Stability of test compounds were determined in subcellular fractions (microsomes and S9) of human liver and intestine in duplicate for each matrix. Pooled liver and intestinal microsomal, intestinal and liver S9 proteins (1.0 mg/mL), suspended in incubation buffer (100 mM potassium phosphate, pH […], and 0.1 mM EDTA), were preincubated for 5 min at 37° C. with 10 μM of a test compound from a 10 mM stock solution in DMSO (final DMSO concentration was 0.1%); the reaction was initiated by the addition of NADPH (3 mM final concentration). At specific times (0 and 60 min), 0.1 mL samples were taken and the reaction terminated by the addition of 4 volumes of stop solution (acetonitrile with 500 ng/mL carbutamide as an internal standard). The samples were vortexed for 30 sec and then centrifuged at 16,000 g for 10 min. 100 μL of supernatants were transferred to 96 deep-well plates preloaded with 100 μL distilled water and analyzed after mixing by LC-MS/MS. The MS peak area ratio of the test compound versus the internal standard was calculated and percent unchanged test compound over 60 minutes was calculated using this ratio.

fresh human hepatocytes = experiment: Release of active metabolite in fresh human hepatocytes; format: in vitro ADME; details: 10 μM, 6 hr
Experimental: Plates of fresh human and mouse hepatocytes were obtained on ice. The medium was removed and replaced with hepatocyte culture medium (William's E supplemented with penicillin-streptomycin, 1% L-glutamine, 1% insulin-transferrin-selenium and 0.1 μM Dexamethasone (Invitrogen) or with Invitro GRO HI medium complemented with Torpedo antibiotics (Celsis)). Cells were left overnight in an incubator at 37° C. to acclimatize to culture and the medium.
Hepatocyte incubations were conducted at a final volume of 0.5 mL hepatocyte culture medium/well (0.8 million cells/well for human and 0.5 million cells/well for mouse; 12 well plate no overlay, collagen coat). Culture medium from overnight incubation of cells was removed and replaced with fresh medium, pre-warmed to 37° C., containing 10 μM of test compound from a stock solution in DMSO (final DMSO concentration was 0.1%). At each specific time point, incubation medium was removed and cell monolayers were carefully washed two times with ice-cold PBS. Following the last wash, all PBS was carefully removed and 1.0 mL of extraction solution (ice-cold 70% methanol/30% water) added. Cells were scraped off and suspended in the extraction solution, transferred to 2 mL polypropylene microfuge tubes and intracellular contents extracted overnight at −20° C.
After the overnight treatment the cellular extracts were prepared by centrifugation at 16,000×g for 10 min to remove cellular debris. The remaining sample was then dried using a refrigerated centrivap concentrator. Dry extracts were reconstituted in 1000 μL of HPLC-grade water and centrifuged at 16,000×g for 10 min. Aliquots (100 μL each) of the supernatant were transferred into a 96 well plate and internal standard (4 ng/mL final concentration) was added as the internal standard (IS) for LC-MS/MS analysis.
The incubation time points were 6, 24 and 48 hours for human hepatocytes and 1, 4, 8, 12 and 24 hours for mouse hepatocytes.

[3] = Plasma and liver pharmacokinetics following a single oral dose in mice (Example 6); format: in vivo; details: mouse, plasma, CD-1 mice, oral 25 mg/kg, 1a average of N = 2
Experimental: For each compound, a single oral dose at 25 mg/kg in PEG 200 (dose volume 5 mL/kg) was administered to [CD-1] mice. Untreated animals were used for the collection of control liver. Terminal liver and plasma samples were collected from three animals per time point at 4, 12 and 24 hours post dose and additionally at 1 hour post dose in one occasion of Compound 1 (see Example 5). Liver specimens were collected from all animals immediately after the incision. Freezing forceps stored in liquid nitrogen were used to freeze the liver before excision.
Plasma samples were analyzed for the prodrug and 2′-methylguanosine (2′-MeG) or relevant nucleoside by LC-MS/MS. For protein precipitation and extraction, each plasma sample (50 μL) was treated with 500 μL of 0.2% formic acid in acetonitrile and 20 μL of an appropriate internal standard working solution. After vortexing and centrifugation, 500 μL of the sample extracts were transferred to a new plate, dried under N2 at ˜28° C. and reconstituted with 75 μL of 0.2% FA in water. The extracts were chromatographed on an Aquasil C18 column using a gradient system of 0.2% formic acid in water and acetonitrile. The analytes were detected and quantified by tandem mass spectrometry in positive ion mode on an MDS Sciex API5000 or an API4000 equipped with a Turbo Ionspray® interface. The calibration range was 0.500 (LLOQ) to 200 ng/mL in mouse plasma. The corresponding range for molar units is 1.68 to 673 pmol/mL.
Liver samples were analyzed for the active species 2′-methylguanosine triphosphate (2′-MeGTP) or relevant nucleoside triphosphate by LC-MS/MS. The triphosphate levels were assayed by homogenizing (on ice) a known weight of mouse liver with 4× volume of 0.95 M trichloroacetic acid (TCA). Appropriate internal standard solution was added to the homogenate followed by neutralization with 20% ammonium hydroxide solution and addition of 500 μL 1% formic acid. The tissue samples were extracted by weak anion exchange solid phase extraction (SPE). Post extraction, the eluates were evaporated under nitrogen, followed by reconstitution before injection onto the LC-MS/MS system. The samples were chromatographed on a Luna NH2 column using a gradient system of ammonium acetate (1 mM to 20 mM and pH 8.0 to pH 10.0) in water and acetonitrile (70:30). The analyte was detected and quantified by tandem mass spectrometry in positive ion mode on an API4000 equipped with a Turbo Ionspray® interface. The calibration range was 10 to 10000 pmol/mL in mouse liver homogenate (50 to 50000 pmol/g of mouse liver).

CCOc1nc(N)nc2c1ncn2[C@@H]1O[C@@H]2COP(=O)(OC(C)C)O[C@H]2[C@@]1(C)O (single isomer, unassigned) [Compound 1a]
CC50 at 72 h [1]: > 50 µM
Stability HIS9 (1 hr) ([2]; HIS9 1.0 mg/mL): 106%
Stability HIM (1 hr) ([2]; human intestinal microsome 1.0 mg/mL): 107%
Stability HLS9 (1 hr) ([2]; human liver S9 fraction 1.0 mg/mL): 111%
Stability HLM (1 hr) ([2]; human liver microsome 1.0 mg/mL): 100%
FHH TP (6 hr) (fresh human hepatocytes): BLD^a
AUC(0-t) ([3]; normalized to 1 μmol/kg dose, read-out: Plasma prodrug AUC0-24): 0.34 µM·h
Cmax ([3]; normalized to 1 μmol/kg dose, read-out: Plasma prodrug Cmax): 43 nM
Tmax ([3]; read-out: Plasma prodrug Tmax): 3 h
